Measurements published in ChEMBL document CHEMBL5038572, “Thermodynamic Dissection of Potency and Selectivity of Cytosolic Hsp90 Inhibitors” (J Med Chem, 2021).
pIC50, pKd, pKi: −log10 of the molar value. Calls of active or inactive are those of the source. The calls are words filed in the database; no cut-off is given here.

Experiments:
[1] = molecular target: T1, Heat shock protein HSP 90-alpha (Homo sapiens, UniProt P07900); test: Binding affinity to human HSP90-alpha N-terminal domain assessed as dissociation constant at 100 uM at 25 degC by isothermal titration calorimetry
[2] = molecular target: T1, Heat shock protein HSP 90-alpha; test: Binding affinity to human HSP90-alpha assessed as change in heat capacity at 20 to 30 degC by isothermal titration calorimetry
[3] = molecular target: Heat shock protein HSP 90-beta (Homo sapiens, UniProt P08238); test: Binding affinity to human HSP90-beta by fluorescence polarization competitive binding assay
[4] = molecular target: T2, Heat shock protein 75 kDa, mitochondrial (Homo sapiens, UniProt Q12931); test: Binding affinity to TRAP1 (unknown origin) by fluorescence polarization competitive binding assay
T2 sequence (Q12931 whole entry): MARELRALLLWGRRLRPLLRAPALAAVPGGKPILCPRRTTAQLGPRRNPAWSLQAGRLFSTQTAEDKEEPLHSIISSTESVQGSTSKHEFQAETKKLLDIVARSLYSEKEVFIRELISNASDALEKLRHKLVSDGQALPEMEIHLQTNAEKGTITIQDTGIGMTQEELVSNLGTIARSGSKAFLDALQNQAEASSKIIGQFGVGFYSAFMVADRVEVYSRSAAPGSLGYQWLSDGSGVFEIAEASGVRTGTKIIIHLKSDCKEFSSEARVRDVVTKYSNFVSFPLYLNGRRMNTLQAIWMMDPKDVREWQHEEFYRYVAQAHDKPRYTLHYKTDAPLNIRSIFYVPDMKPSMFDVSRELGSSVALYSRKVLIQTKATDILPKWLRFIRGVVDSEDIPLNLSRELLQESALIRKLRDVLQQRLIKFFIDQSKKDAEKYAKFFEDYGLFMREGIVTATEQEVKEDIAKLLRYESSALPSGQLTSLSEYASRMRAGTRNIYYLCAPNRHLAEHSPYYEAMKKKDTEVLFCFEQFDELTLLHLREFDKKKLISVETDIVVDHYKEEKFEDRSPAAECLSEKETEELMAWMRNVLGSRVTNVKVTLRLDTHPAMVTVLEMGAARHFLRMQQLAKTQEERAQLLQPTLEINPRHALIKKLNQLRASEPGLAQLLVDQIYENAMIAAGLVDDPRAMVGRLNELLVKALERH

[5] = molecular target: T1, Heat shock protein HSP 90-alpha; test: Inhibition of FITC-GDA binding to human HSP90-alpha incubated for 2 hrs followed by FITC-GDA addition and measured after 5 hrs by fluorescence polarization competitive binding assay
[6] = molecular target: T1, Heat shock protein HSP 90-alpha; test: Binding affinity to human HSP90-alpha N-terminal domain assessed as gibbs free energy change at 100 uM by isothermal titration calorimetry
[7] = molecular target: T1, Heat shock protein HSP 90-alpha; test: Binding affinity to human HSP90-alpha N-terminal domain assessed as change in enthalpy by measuring dissociation constant at 100 uM at 25 degC by isothermal titration calorimetry
[8] = molecular target: T1, Heat shock protein HSP 90-alpha; test: Binding affinity to human HSP90-alpha at protein to compound molar ratio of 1:1
Endoplasmin = Endoplasmin (Homo sapiens, UniProt P14625); test: Binding affinity to GRP94 (unknown origin) by fluorescence polarization competitive binding assay
[9] = molecular target: T1, Heat shock protein HSP 90-alpha; test: Binding affinity to human HSP90-alpha N-terminal domain assessed as change in enthalpy at 100 uM by isothermal titration calorimetry
[10] = molecular target: T1, Heat shock protein HSP 90-alpha; test: Binding affinity to human HSP90-alpha N-terminal domain assessed as change in entropy at 100 uM by isothermal titration calorimetry

Sequence of Endoplasmin (P14625 whole entry, the tested form may be a part): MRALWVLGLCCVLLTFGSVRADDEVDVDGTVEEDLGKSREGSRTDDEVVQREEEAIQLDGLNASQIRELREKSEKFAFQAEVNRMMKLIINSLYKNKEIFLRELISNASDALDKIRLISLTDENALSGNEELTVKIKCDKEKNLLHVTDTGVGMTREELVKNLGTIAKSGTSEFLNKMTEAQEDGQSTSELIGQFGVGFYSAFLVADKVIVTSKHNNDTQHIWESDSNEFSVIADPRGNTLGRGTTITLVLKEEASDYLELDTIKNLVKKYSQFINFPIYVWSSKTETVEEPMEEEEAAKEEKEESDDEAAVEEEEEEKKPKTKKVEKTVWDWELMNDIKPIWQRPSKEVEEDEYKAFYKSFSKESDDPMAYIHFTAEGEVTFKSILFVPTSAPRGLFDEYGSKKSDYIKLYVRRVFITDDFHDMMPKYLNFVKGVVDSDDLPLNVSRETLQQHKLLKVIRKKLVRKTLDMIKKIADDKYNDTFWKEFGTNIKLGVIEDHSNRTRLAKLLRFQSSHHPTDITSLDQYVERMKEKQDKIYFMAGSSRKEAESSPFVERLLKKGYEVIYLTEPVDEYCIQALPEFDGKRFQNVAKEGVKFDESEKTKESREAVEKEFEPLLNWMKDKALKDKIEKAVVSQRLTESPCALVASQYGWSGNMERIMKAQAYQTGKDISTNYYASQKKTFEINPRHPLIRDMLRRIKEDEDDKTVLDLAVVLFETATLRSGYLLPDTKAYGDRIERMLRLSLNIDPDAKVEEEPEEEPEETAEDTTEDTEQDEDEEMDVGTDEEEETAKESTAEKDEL
Sequence of Heat shock protein HSP 90-beta (P08238 whole entry): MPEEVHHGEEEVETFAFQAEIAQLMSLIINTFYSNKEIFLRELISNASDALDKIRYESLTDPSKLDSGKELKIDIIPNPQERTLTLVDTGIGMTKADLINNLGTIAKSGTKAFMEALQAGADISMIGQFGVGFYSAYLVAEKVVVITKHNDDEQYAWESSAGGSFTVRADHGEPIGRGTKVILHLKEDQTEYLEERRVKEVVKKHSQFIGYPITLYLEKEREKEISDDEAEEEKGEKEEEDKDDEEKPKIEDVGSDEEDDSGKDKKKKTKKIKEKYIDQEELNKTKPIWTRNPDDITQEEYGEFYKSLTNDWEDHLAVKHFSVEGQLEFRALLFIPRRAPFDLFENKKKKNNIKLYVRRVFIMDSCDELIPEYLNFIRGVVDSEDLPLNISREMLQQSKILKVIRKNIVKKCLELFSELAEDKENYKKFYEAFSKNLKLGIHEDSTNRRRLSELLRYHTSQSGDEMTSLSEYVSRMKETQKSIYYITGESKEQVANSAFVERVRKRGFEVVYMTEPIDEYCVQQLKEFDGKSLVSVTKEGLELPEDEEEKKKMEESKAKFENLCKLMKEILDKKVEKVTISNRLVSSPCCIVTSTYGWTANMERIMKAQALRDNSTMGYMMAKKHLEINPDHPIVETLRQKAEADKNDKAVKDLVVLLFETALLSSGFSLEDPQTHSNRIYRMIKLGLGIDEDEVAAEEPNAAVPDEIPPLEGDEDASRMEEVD

DeltaCp [2]	pIC50 [3]	pIC50 [4]	pIC50 [5]	pIC50 (Endoplasmin)	Structure (SMILES)	other results
-0.29 kcal/mol.K					CCc1cc(C(N)=O)ccc1-n1nc(C(C)C)c2c(-n3cnc(-c4cnn(C)c4)c3)ccnc21 [TAS-116]	pKd [1]: 6.77
0.56 kcal/mol.K	4.05	< 3.52	3.53	< 3.52	CC(C)c1n[nH]c2nccc(-n3cnc(-c4cccnc4)c3)c12	deltaG [6]: -7.6 kcal/mol; pKd [7]: 5.57; Activity [8]: Active; deltaH [9]: -5.7 kcal/mol; -TdeltaS [10]: -1.9 kcal/mol
					NC(=O)c1ccc(-c2nccc3c(-n4cnc(-c5ccccc5)c4)ccnc23)cc1NC1CCC(O)CC1 (stereo not given)	pKi [3]: 4.77; pKi [4]: < 3.52; pKi [5]: 4.89; pKi (Endoplasmin): < 3.52
	3.66	< 3.52	3.52	< 3.52	CC(C)c1n[nH]c2nccc(-n3cnc(-c4cnn(C)c4)c3)c12	
